Measurements taken from ChEMBL document CHEMBL1158341, “A macrolactone from benzo[a]phenazine with potent activity against Mycobacterium tuberculosis” (2009).
Converted amounts (≈) assume the structure as drawn. The source made the active and inactive calls. The rule behind the calls is not given here.

How the values were obtained:
[1] = test system: Mycobacterium tuberculosis; test: Antimycobacterial activity against Mycobacterium tuberculosis H37Rv ATCC 27294 at 100 ug/mL after 24 hrs by microplate alamar blue assay; type: functional
[2] = test system: Mycobacterium tuberculosis; test: Antimycobacterial activity against Mycobacterium tuberculosis H37Rv ATCC 27294 after 24 hrs by microplate alamar blue assay; type: functional

SMILES	inhibition at 100 µg/mL [1]	MIC [2]
CC1(C)CCC(=O)c2nccnc2-c2ccccc2C(=O)O1	90%	50 µg/mL (≈ 169 µM)
CC1(C)CC(=O)c2nc3ccccc3nc2-c2ccccc2C(=O)O1	90%	100 µg/mL (≈ 301 µM)
CO[C@H]1/C=C/O[C@@]2(C)Oc3c(C)c(O)c4c(O)c(c(/C=N/N5CCN(C)CC5)c(O)c4c3C2=O)NC(=O)/C(C)=C\C=C\[C@H](C)[C@H](O)[C@@H](C)[C@@H](O)[C@@H](C)[C@H](OC(C)=O)[C@@H]1C [RIFAMPIN]		1 µg/mL (≈ 1.22 µM)
CC(C)(O)CCCC1(O)C(=O)c2ccccc2-c2nc3ccccc3nc21 (stereo unspecified)	90%	inactive
CC1(C)CCC(=O)c2nc3ccccc3nc2-c2ccccc2C(=O)O1	90%	0.62 µg/mL (≈ 1.79 µM)
CC1(C)OC(=O)c2ccccc2-c2c(nc3ccccc3[n+]2[O-])C(=O)CC1Br (stereo unspecified)	90%	25 µg/mL (≈ 56.7 µM)
